Measured values as given in PMC12894115, “Discovery and Functional Characterization of SnFDHal, an Efficient Tryptophan 5-Halogenase from Streptomyces noursei” (Applied Biochemistry and Biotechnology, 2025).

Each compound was assayed on T1, SnFDHal (assay: HPLC chlorination assay, Michaelis-Menten fit). Settings: NADH, FAD, E. coli Fre reductase (FADH2 regeneration), NaCl; 100 mM phosphate pH 6.0, 35 °C, 30 min.
T1 construct: full-length 1,551 bp gene (about 516 residues) cloned from genomic DNA, pET28a NdeI/XhoI, His6-tagged, E. coli BL21(DE3), Ni-NTA; residues F49, K75, I78, H92, F94, Q187, E359, S460
Type: biochemical, Streptomyces noursei
Excerpt: HPLC chlorination assay, Michaelis-Menten fit on SnFDHal
In the case of `N[C@@H](Cc1c[nH]c2cc(Cl)ccc12)C(=O)O` [6-Cl-Trp, 6-chlorotryptophan], the Km is reported as 945 µM.
For `N[C@@H](Cc1c[nH]c2c(Cl)cccc12)C(=O)O` [7-Cl-Trp, 7-chlorotryptophan], the Km was 172 µM.
In the case of `N[C@@H](Cc1c[nH]c2ccccc12)C(=O)O` [L-Trp, L-tryptophan], the Km is reported as 622 µM.
